Biological target: Replicase polyprotein 1ab (Severe acute respiratory syndrome coronavirus 2) (UniProt P0DTD1)
[1] = Concentration 49.75 uM, Number of replicates 2.0, Standard deviation 0.286 %

Description: Functional biochemical assay to identify treatments for viral infectious disease that targets SARS-COV-2 nsp3 macrodomain, whereby the mechanism of action displaces an ADP-Ribose modified peptide from the binding site. Utilizing a time-resolved fluorescence method to measure binding by reading the emitted fluorescence intensity in two wavelengths.

Compound: O=C(Nc1ccccc1)Nc1ccc(C(=O)N2CCc3nc[nH]c3C2)cc1
- inhibition (Concentration 49.75 uM, Number of replicates 2.0, Standard deviation 2.91 %): -3.02%
- inhibition (Concentration 99.5 uM, Number of replicates 2.0, Standard deviation 5.124 %): -2.38%

Compound: CS(=O)(=O)N1CC[C@@H](COC(=O)c2ncnc3[nH]ccc23)C1
- inhibition (Concentration 50.0 uM, Number of replicates 2.0, Standard deviation 2.196 %): 0.187%

Compound: O=C(N[C@@H]1CCCNC1=O)c1cnn2ccc(C3CCN(C(=O)c4ccccc4)CC3)cc12
- inhibition (Concentration 49.75 uM, Number of replicates 2.0, Standard deviation 2.776 %): -3.16%
- inhibition (Concentration 99.5 uM, Number of replicates 2.0, Standard deviation 2.396 %): -4.87%

Compound: Fc1ccc(F)c(Sc2ncnc3[nH]ccc23)c1
- inhibition (Concentration 50.0 uM, Number of replicates 2.0, Standard deviation 6.588 %): -1.15%

Compound: Cc1c([C@@H](C)Nc2ncnc3[nH]ccc23)cnn1-c1ccccc1
- inhibition (Concentration 49.75 uM, Number of replicates 2.0, Standard deviation 1.063 %): 28.1%
- inhibition (Concentration 99.5 uM, Number of replicates 2.0, Standard deviation 3.12 %): 41.7%

Compound: Cc1[nH]c2ncnc(NC(=O)C3CC=CC3)c2c1C
- inhibition (Concentration 50.0 uM, Number of replicates 2.0, Standard deviation 5.54 %): 73.1%

Compound: CC(C)(CCNc1ncnc2[nH]ccc12)S(C)(=O)=O
- inhibition (Concentration 50.0 uM, Number of replicates 2.0, Standard deviation 3.874 %): 0.75%

Compound: c1ccc(OC[C@@H]2CCCN2c2ncnc3[nH]ccc23)cc1
- inhibition (Concentration 50.0 uM, Number of replicates 2.0, Standard deviation 1.709 %): -0.466%

Compound: C=CCn1c(Cc2ccccc2)nnc1Sc1ncnc2[nH]ccc12
- inhibition (Concentration 50.0 uM, Number of replicates 2.0, Standard deviation 4.634 %): -7.71%

Compound: O=C(OCc1ccc(Cl)nc1)c1ncnc2[nH]ccc12
- inhibition (Concentration 50.0 uM, Number of replicates 2.0, Standard deviation 1.988 %): 6.08%

Compound: O=C(Nc1nc2ccc(F)cc2[nH]1)c1cc(N2CCNC2=O)ccc1F
- inhibition (Concentration 50.0 uM, Number of replicates 2.0, Standard deviation 3.412 %): -7.71%

Compound: CCc1n[nH]c(NC(=O)c2ccc(NC(=O)Nc3ccccc3)cc2)c1Br
- inhibition (Concentration 49.75 uM, Number of replicates 2.0, Standard deviation 2.077 %): -5.57%
- inhibition (Concentration 99.5 uM, Number of replicates 2.0, Standard deviation 0.313 %): 0.467%

Compound: Cn1nc(C(=O)N2CCC(c3ccn4ncc(C(=O)N5CCCCC5)c4c3)CC2)cc1C(=O)O
- inhibition (Concentration 49.75 uM, Number of replicates 2.0, Standard deviation 1.938 %): 42.7%
- inhibition (Concentration 99.5 uM, Number of replicates 2.0, Standard deviation 2.395 %): 59.7%

Compound: Cc1ccc2ccccc2c1-c1ncnc2[nH]ccc12
- inhibition (Concentration 49.75 uM, Number of replicates 2.0, Standard deviation 3.409 %): -5.32%
- inhibition (Concentration 99.5 uM, Number of replicates 2.0, Standard deviation 3.055 %): -9.1%

Compound: CC(C)[C@H]1CNC(=O)CN1c1ncnc2[nH]ccc12
- inhibition (Concentration 49.75 uM, Number of replicates 2.0, Standard deviation 0.296 %): 6.84%
- inhibition (Concentration 99.5 uM, Number of replicates 2.0, Standard deviation 2.93 %): 17.6%

Compound: FC(F)(F)Oc1ccccc1-c1ncnc2[nH]ccc12
- inhibition (Concentration 50.0 uM, Number of replicates 2.0, Standard deviation 5.274 %): -3.37%
- inhibition (Concentration 100.0 uM, Number of replicates 2.0, Standard deviation 3.913 %): 2.12%

Compound: Cc1ccc(C(=O)N2CCC(c3ccn4ncc(C(=O)N5CCCCC5)c4c3)CC2)c(=O)[nH]1
- inhibition (Concentration 49.75 uM, Number of replicates 2.0, Standard deviation 1.294 %): 3.31%
- inhibition (Concentration 99.5 uM, Number of replicates 2.0, Standard deviation 2.376 %): 3.66%

Compound: O=C(NCc1c[nH]nn1)c1cnn2ccc(C3CCN(C(=O)c4ccccc4)CC3)cc12
- inhibition (Concentration 49.75 uM, Number of replicates 2.0, Standard deviation 0.251 %): -2.86%
- inhibition (Concentration 99.5 uM, Number of replicates 2.0, Standard deviation 8.51 %): 2.17%

Compound: CO[C@@]1(C(=O)O)CCN(C(=O)c2ncnc3[nH]ccc23)C1
- inhibition (Concentration 50.0 uM, Number of replicates 2.0, Standard deviation 2.289 %): -4.18%
- inhibition (Concentration 100.0 uM, Number of replicates 2.0, Standard deviation 3.346 %): -3.71%

Compound: Cc1[nH]cnc1C(=O)N1CCC(c2ccn3ncc(C(=O)N4CCCCC4)c3c2)CC1
- inhibition (Concentration 49.75 uM, Number of replicates 2.0, Standard deviation 1.318 %): 16.4%
- inhibition (Concentration 99.5 uM, Number of replicates 2.0, Standard deviation 4.675 %): 32%

Compound: O=C(Nc1ccccc1)Nc1ccc(C(=O)N2CCc3ccncc32)cc1
- inhibition (Concentration 49.75 uM, Number of replicates 2.0, Standard deviation 6.741 %): -4.3%
- inhibition (Concentration 99.5 uM, Number of replicates 2.0, Standard deviation 1.961 %): 0.234%

Compound: O=C(Nc1cnc2[nH]ncc2c1)C1CCN(c2ccc3nncn3n2)CC1
- inhibition (Concentration 50.0 uM, Number of replicates 2.0, Standard deviation 15.88 %): 17%

Compound: Cn1ncnc1C(=O)N1CCC(c2ccn3ncc(C(=O)N4CCCCC4)c3c2)CC1
- inhibition (Concentration 49.75 uM, Number of replicates 2.0, Standard deviation 0.221 %): 2.38%
- inhibition (Concentration 99.5 uM, Number of replicates 2.0, Standard deviation 2.086 %): 20.4%

Compound: OC[C@H](Cc1ccccc1)Nc1ncnc2[nH]ccc12
- inhibition (Concentration 50.0 uM, Number of replicates 2.0, Standard deviation 2.629 %): -1.29%
- inhibition (Concentration 100.0 uM, Number of replicates 2.0, Standard deviation 0.62 %): 8.93%

Compound: Cc1ccc(O)c(CNc2ncnc3[nH]cnc23)n1
- inhibition (Concentration 50.0 uM, Number of replicates 2.0, Standard deviation 1.123 %): 0.262%
- inhibition (Concentration 100.0 uM, Number of replicates 2.0, Standard deviation 2.0 %): 6.28%

Compound: COc1ccccc1CN(C[C@@H]1CCCO1)c1ncnc2[nH]ccc12
- inhibition (Concentration 50.0 uM, Number of replicates 2.0, Standard deviation 1.448 %): 4.74%

Compound: O=C(c1c[nH]nn1)N1CCC(c2ccn3ncc(C(=O)N4CCCCC4)c3c2)CC1
- inhibition [1]: 14.7%
- inhibition (Concentration 99.5 uM, Number of replicates 2.0, Standard deviation 4.61 %): 25.6%

Compound: OCc1cn([C@@H]2CCCN(c3ncnc4[nH]ccc34)C2)nn1
- inhibition (Concentration 50.0 uM, Number of replicates 2.0, Standard deviation 2.708 %): -0.682%

Compound: NC(=O)[C@@H]1CCN(C(=O)c2cnc3[nH]c(=O)[nH]c(=O)c3c2)C1
- inhibition (Concentration 50.0 uM, Number of replicates 2.0, Standard deviation 2.086 %): -6.32%

Compound: CC(C)OCCNC(=O)c1cc2c(=O)n3ccccc3nc2n1C
- inhibition (Concentration 50.0 uM, Number of replicates 2.0, Standard deviation 4.259 %): 14%

Compound: CC(C)[C@@H](CCN(C)C(=O)c1cc2c(s1)CC[C@H](C)C2)Nc1ncnc2[nH]ccc12
- inhibition (Concentration 49.75 uM, Number of replicates 2.0, Standard deviation 6.617 %): -9.68%

Compound: CCN(Cc1nnc(C)o1)C(=O)c1cnn2ccc(C3CCN(C(=O)c4ccccc4)CC3)cc12
- inhibition (Concentration 49.75 uM, Number of replicates 2.0, Standard deviation 14.085 %): 10%
- inhibition (Concentration 99.5 uM, Number of replicates 2.0, Standard deviation 1.269 %): -5.31%

Compound: NC1(C(=O)N(CCC(=O)N2CCNCC2)Cc2cccc(Cl)c2)CC(F)(F)C1
- inhibition [1]: -3.48%
- inhibition (Concentration 99.5 uM, Number of replicates 2.0, Standard deviation 3.805 %): -1.17%

Compound: CC(C)Cn1cc([C@H]2N(c3ncnc4[nH]ccc34)CC23CCOCC3)cn1
- inhibition (Concentration 49.75 uM, Number of replicates 2.0, Standard deviation 1.28 %): -0.591%
- inhibition (Concentration 99.5 uM, Number of replicates 2.0, Standard deviation 6.534 %): -4.66%

Compound: Cc1cocc1C(=O)N(CCC(=O)N1CCNCC1)Cc1cccc(Cl)c1
- inhibition (Concentration 49.75 uM, Number of replicates 2.0, Standard deviation 0.438 %): 1.4%
- inhibition (Concentration 99.5 uM, Number of replicates 2.0, Standard deviation 0.13 %): 0.51%

Compound: CC(C)c1nc([C@@H](C)Nc2ncnc3nc[nH]c23)cs1
- inhibition (Concentration 49.75 uM, Number of replicates 2.0, Standard deviation 2.607 %): 2.65%
- inhibition (Concentration 99.5 uM, Number of replicates 2.0, Standard deviation 0.232 %): 3.07%

Compound: Cc1[nH]c2ncnc(NC(=O)c3ncn(-c4ccccc4)n3)c2c1C
- inhibition (Concentration 50.0 uM, Number of replicates 2.0, Standard deviation 1.407 %): 7.1%

Compound: C(=C1CCCCC1)c1ncnc2[nH]ccc12
- inhibition (Concentration 50.0 uM, Number of replicates 2.0, Standard deviation 3.96 %): -5.46%
- inhibition (Concentration 100.0 uM, Number of replicates 2.0, Standard deviation 2.541 %): 3.46%

Compound: Cn1nc(NCc2cc3c(=O)[nH]ccc3o2)c2nccnc21
- inhibition (Concentration 50.0 uM, Number of replicates 2.0, Standard deviation 1.985 %): -1.01%

Compound: Cn1ncc2ncnc(NCc3ncccc3O)c21
- inhibition (Concentration 50.0 uM, Number of replicates 2.0, Standard deviation 1.081 %): -2.55%

Compound: O=C(CCN(Cc1cccc(Cl)c1)C(=O)C1(O)CCCC1)N1CCNCC1
- inhibition (Concentration 49.75 uM, Number of replicates 2.0, Standard deviation 1.82 %): -1.21%
- inhibition (Concentration 99.5 uM, Number of replicates 2.0, Standard deviation 0.971 %): -1.78%

Compound: N[C@@H]1CCC[C@@H](C(=O)N(CCC(=O)N2CCNCC2)Cc2cccc(Cl)c2)C1
- inhibition (Concentration 49.75 uM, Number of replicates 2.0, Standard deviation 0.617 %): -0.755%
- inhibition (Concentration 99.5 uM, Number of replicates 2.0, Standard deviation 0.793 %): -1.47%

Compound: Cn1cc([C@@H](Nc2ncnc3[nH]ccc23)C2CCC2)cn1
- inhibition (Concentration 49.75 uM, Number of replicates 2.0, Standard deviation 3.794 %): 78.1%
- inhibition (Concentration 99.5 uM, Number of replicates 2.0, Standard deviation 1.201 %): 91%

Compound: Cc1noc([C@@H]2CCCN(c3ncnc4[nH]ccc34)C2)n1
- inhibition (Concentration 50.0 uM, Number of replicates 2.0, Standard deviation 1.725 %): 1.92%

Compound: O=C(c1cnc2[nH]ncc2c1)N1CCC(c2ccn3ncc(C(=O)N4CCCCC4)c3c2)CC1
- inhibition (Concentration 49.75 uM, Number of replicates 2.0, Standard deviation 0.466 %): 15.8%
- inhibition (Concentration 99.5 uM, Number of replicates 2.0, Standard deviation 6.369 %): 34.4%

Compound: Cn1cc(NC(=O)c2ccc(NC(=O)Nc3ccccc3)cc2)c(C#N)n1
- inhibition (Concentration 49.75 uM, Number of replicates 2.0, Standard deviation 0.991 %): 2.49%
- inhibition (Concentration 99.5 uM, Number of replicates 2.0, Standard deviation 1.521 %): -0.539%

Compound: O=C(Nc1ccccc1)Nc1ccc(C(=O)N[C@H]2CC[C@H](CO)CC2)cc1
- inhibition (Concentration 49.75 uM, Number of replicates 2.0, Standard deviation 1.388 %): -0.639%
- inhibition (Concentration 99.5 uM, Number of replicates 2.0, Standard deviation 3.79 %): -2.58%

Compound: O=C(Nc1cnc2[nH]ncc2c1)c1ccccc1CN1CCOCC1
- inhibition (Concentration 50.0 uM, Number of replicates 2.0, Standard deviation 2.919 %): -3.24%

Compound: COCc1nc(CNc2c(C#N)c(C)nn2C)cs1
- inhibition (Concentration 50.0 uM, Number of replicates 2.0, Standard deviation 4.858 %): 0.8%

Compound: CNC[C@@H]1CCCN1C(=O)c1cnn2ccc(C3CCN(C(=O)c4ccccc4)CC3)cc12
- inhibition (Concentration 49.75 uM, Number of replicates 2.0, Standard deviation 1.186 %): -1.47%
- inhibition (Concentration 99.5 uM, Number of replicates 2.0, Standard deviation 2.864 %): -2.2%

— ChEMBL document CHEMBL5442379, “ASAP - SARS-CoV-2 nsp3 macrodomain single point” (2024)
